One experiment addresses T1, BTK (Homo sapiens, UniProt Q06187).
T1 construct: purchased Upstate 14-552
Put plainly: In Vitro BTK Kinase Assay: Btk-PolyGAT-LS Assay. The following applies: active BTK enzyme 0.25 nM, fluorescein-labeled polyGAT peptide 100 nM, 30 minutes incubation, TRF readout; read-out: In Vitro BTK Kinase Assay IC50 Score. It is filed as biochemical. How it is done:
The purpose of the BTK in vitro assay is to determine compound potency against BTK through the measurement of IC50. Compound inhibition is measured after monitoring the amount of phosphorylation of a fluorescein-labeled polyGAT peptide (Invitrogen PV3611) in the presence of active BTK enzyme (Upstate 14-552), ATP, and inhibitor. The BTK kinase reaction was done in a black 96 well plate (costar 3694). For a typical assay, a 24 μL aliquot of a ATP/peptide master mix (final concentration; ATP […], polyGAT 100 nM) in kinase buffer (10 mM Tris-HCl pH 7.5, 10 mM MgCl2, 200 μM […], 5 mM DTT, 0.01% Triton X-100, and 0.2 mg/ml casein) is added to each well. Next, I uL of a 4-fold, 40× compound titration in 100% DMSO solvent is added, followed by adding […] of BTK enzyme mix in 1× kinase buffer (with a final concentration of 0.25 nM). The assay is incubated for 30 minutes before being stopped with […] of a 50 mM EDTA solution. Aliquots (5 uL) of the kinase reaction are transferred to a low volume white 384 well plate (Corning 3674), and […] of a 2× detection buffer (Invitrogen PV3574, with 4 nM Tb-PY20 antibody, Invitrogen PV3552) is added. The plate is covered and incubated for 45 minutes at room temperature. Time resolved fluorescence (TRF) on Molecular Devices M5 (332 nm excitation; 488 nm emission; 518 nm fluorescein emission) is measured. IC50 values are calculated using a four parameter fit with 100% enzyme activity determined from the DMSO control and 0% activity from the EDTA control.
“†” represents an IC50 of greater than 1 μM and equal to or less than 10 μM. “††” represents an IC50 of greater than 10 nM and equal to or less than 1 μM (10 nM<IC50≤1 μM). “†††” represents an IC50 of greater than 1 nM and equal to or less than 10 nM (1 nM<IC50≤10 nM). “††††” represents an IC50 of less than 1 nM.

The test system of experiment [1] is CD69 expression on CD19+ B cells in human whole blood. Briefly: In Vitro Whole Blood CD69 Assay. It is filed as cell-based. Particulars: B-cell; human heparinized whole blood, anti-human IgD stimulation, overnight (18 to 22 hours), percentage of CD19+ B cells expressing CD69, flow cytometry; read-out: In Vitro HWB CD69 Assay IC50 Score. How it is done: Human heparinized venous blood from health donors was aliquoted into 96-well plate and “spiked” with serial dilutions of formula I compounds in DMSO or with DMSO without drug. The final concentration of DMSO in all wells was 0.1%. The plate was incubated at 37° C. for 30 min. Drug-containing samples were stimulated with […] mouse anti-human IgD-dextran (1A62) or 20 μg/mL polyclonal rabbit F(ab′)2 anti-human IgD.
Phosphate-buffered saline (PBS) was added to the negative control unstimulated sample and the plates were incubated overnight (18 to 22 hours) at 37° C. Cells were stained with fluorochrome-conjugated anti-CD19 and anti-CD69 antibodies. Lyse/fix solution was used to remove red blood cells by hypotonic lysis and to fix the remaining cells, which were then analyzed by flow cytometry. CD19+B cells were gated and analyzed for CD69 expression.
The percentage of B cells expressing CD69 was plotted versus the log 10 of the concentration of the drug and the best-fit curves (variable Hill slope) were generated to obtain the IC50 value.
“†” represents an IC50 of greater than 10 μM. “††” represents an IC50 of greater than 1 μM and equal to or less than 10 μM (1 μM<IC50≤10 μM). “†††” represents an IC50 of less than 1 μM.
(In flow cytometry, cells or beads pass a laser one at a time.)

This passage reports IC50 results from patent US20250090524A1, “BTK INHIBITORS” (BIOGEN MA INC., priority 2021, published 2025).

T1 sequence (Q06187 whole entry): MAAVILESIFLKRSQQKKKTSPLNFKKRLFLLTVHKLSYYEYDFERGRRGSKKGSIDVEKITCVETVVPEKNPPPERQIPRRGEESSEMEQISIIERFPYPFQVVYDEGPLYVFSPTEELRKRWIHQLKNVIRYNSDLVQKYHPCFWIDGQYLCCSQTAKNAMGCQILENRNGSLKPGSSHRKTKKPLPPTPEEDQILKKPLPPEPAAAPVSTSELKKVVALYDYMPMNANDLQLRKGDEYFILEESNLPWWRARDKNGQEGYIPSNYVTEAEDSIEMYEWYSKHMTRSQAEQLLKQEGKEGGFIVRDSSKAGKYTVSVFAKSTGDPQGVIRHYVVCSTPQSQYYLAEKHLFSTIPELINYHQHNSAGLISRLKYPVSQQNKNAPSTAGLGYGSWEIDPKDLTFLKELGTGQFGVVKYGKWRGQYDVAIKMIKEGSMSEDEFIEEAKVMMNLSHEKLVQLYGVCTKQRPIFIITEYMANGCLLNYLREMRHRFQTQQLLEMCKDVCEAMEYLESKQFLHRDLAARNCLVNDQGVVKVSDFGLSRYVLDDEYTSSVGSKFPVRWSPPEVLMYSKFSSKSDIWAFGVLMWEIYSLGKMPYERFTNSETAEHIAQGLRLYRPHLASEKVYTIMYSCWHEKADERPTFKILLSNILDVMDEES

As for `C=CC(=O)N(C)[C@H]1CCC[C@H](c2nc(-c3cnn(C)c3)cn3nccc23)C1` (single isomer, unassigned) [Example 25, trans-N-methyl-N-(3-(6-(1-methyl-1H-pyrazol-4-yl)pyrazolo[1,5-a]pyrazin-4-yl)cyclohexyl)acrylamide], the IC50 at BTK fell in the range of 10 to 1000 nM; in experiment [1], 1000 to 10000 nM.

Take `C=CC(=O)N(C)[C@@H]1CCC[C@@H](c2nc(-c3cnn(C)c3)cn3nccc23)C1` (single isomer, unassigned) [Example 24, trans-N-methyl-N-(3-(6-(1-methyl-1H-pyrazol-4-yl)pyrazolo[1,5-a]pyrazin-4-yl)cyclohexyl)acrylamide]: the figures for the IC50 (on BTK; in experiment [1]) were 10 to 1000 nM and 1000 to 10000 nM, respectively.

Regarding `C=CC(=O)N(C)C1CCC(C(=O)c2nc(-c3cnn(C)c3)cn3nccc23)C1` (single isomer, unassigned) [Example 16, N-methyl-N-(3-(6-(1-methyl-1H-pyrazol-4-yl)pyrazolo[1,5-a]pyrazine-4-carbonyl)cyclopentyl)acrylamide], the concentration for half-maximal inhibition (IC50) fell in the range of 1 to 10 nM on BTK and 1000 to 10000 nM in experiment [1].

With `C=CC(=O)N1CCC(c2nc(-c3cnn(C)c3)cn3ncc(F)c23)CC1` [Example 7, 1-[4-[3-fluoro-6-(1-methylpyrazol-4-yl)pyrazolo[1,5-a]pyrazin-4-yl]-1-piperidyl]prop-2-en-1-one], the figures for the IC50 (on BTK; in experiment [1]) were 1 to 10 nM and under 1000 nM, respectively.

`C=CC(=O)N(C)[C@H]1CCC[C@@H](c2nc(-c3cnn(C)c3)cn3nccc23)C1` (single isomer, unassigned) [Example 26, cis-N-methyl-N-(3-(6-(1-methyl-1H-pyrazol-4-yl)pyrazolo[1,5-a]pyrazin-4-yl)cyclohexyl)acrylamide]: the figures for the IC50 (at BTK; in experiment [1]) were 1 to 10 nM and 1000 to 10000 nM, respectively.

With `C=CC(=O)N1CC2CC(c3cc(-c4cnn(C)c4)cn4nccc34)CC2C1` (stereo not drawn) [Example 3, 1-[5-[6-(1-methylpyrazol-4-yl)pyrazolo[1,5-a]pyridin-4-yl]-3,3a,4,5,6,6a-hexahydro-1H-cyclopenta[c]pyrrol-2-yl]prop-2-en-1-one], the IC50 on BTK was under 1 nM; in experiment [1], under 1000 nM.

A word on the IC50: it is the midpoint of a concentration-inhibition curve.
